This is an account of results in article PMC12040169 (PLOS Biology, 2025).

Peptide text beside a SMILES is read from it. * marks the point of attachment. Bz = O=C(c1ccccc1)*

A short description of one data set: in vitro. Conditions: human, hela cells, % viability.
In the case of `CC(Oc1ccc(/C=N/n2cnnc2)cc1)C(=O)O` (centres unmarked) [CBK263927], the viability at 28.5 h, 10 µM came out at 82%.
Same read-out and setting: in the case of `Cc1ccc(OCC(=O)NC(=S)Nc2ccc(Cl)c(-c3nc4ncccc4o3)c2)cc1` [CBK263930] it was 103%; in that of `Cc1ccc(/C=C2\SC(=S)N(CC(=O)Nc3cccc(C(=O)O)c3)C2=O)cc1` [CBK263935], 86.2%.
The same measure, in the same setting: the result for `O=C(NCCNc1c(Cl)cccc1[N+](=O)[O-])c1cccc(Br)c1` [CBK263940] reads 91.4%; that for `O=C(CSc1nc2ccccc2[nH]1)n1c2c(c3ccccc31)CCCC2` [CBK263945], 92.8%; that for `Cc1c(/C=C2\SC(=S)NC2=O)c2ccccc2n1Cc1ccccc1Cl` [CBK263946], 101%.
The same measure, in the same setting: in the case of `COc1cc(/C=C2\C(=O)NN(c3ccccc3)C2=O)ccc1OCCOc1cc(C)ccc1C` [CBK263947] it was 80.5%; in that of `CC(Oc1ccc(Cl)cc1Cl)C(=O)NC1CC(C)(C)NC(C)(C)C1` (centres unmarked) [CBK263951C], 90.3%.
As to `NCCNc1ccc(C(=O)Nc2cccc(Cl)c2)cc1[N+](=O)[O-]` [CBK263953], the viability at 28.5 h, 10 µM turned out to be 85.3%.
On the same count and under the same terms, the result for `N=C1NC(=O)/C(=C/c2cccc(OCCOc3ccc(C4CCCCC4)cc3)c2)S1` [CBK263956] reads 87.6%.
On to `O=C1CC(NCc2ccccc2)C(=O)N1c1ccc(N2C(=O)CC(NCc3ccccc3)C2=O)cc1` (centres unmarked) [CBK263963], for which the viability at 28.5 h, 10 µM is 88.6%.
On to `COc1ccc(N(CC(=O)Nc2cccc3cccnc23)S(=O)(=O)c2ccc(C)cc2)cc1` [CBK263965], for which the viability at 28.5 h, 10 µM came out at 74%.
The same measure, in the same setting: in the case of `CC(C)Oc1ccc(CCNC(=N)NC(=N)N)cc1Cl` [CBK263966] it was 91.5%; in that of `Cc1ccc(S(=O)(=O)N(CC(=O)Nc2cccnc2)c2ccc(F)cc2)cc1` [CBK263968], 85.6%; in that of `COc1ccc(Cl)cc1NC(=O)CCSc1ccccc1` [CBK263969], 85%.
`S=C(NCCC(c1ccccc1)c1ccccc1)Nc1ccc(Cl)c(Cl)c1` [CBK263972]: the viability at 28.5 h, 10 µM worked out at 85.1%.
On the same count and under the same terms, in the case of `O=S(=O)(NCc1ccccn1)c1ccc(Cl)c(Cl)c1Cl` [CBK263978] it was 95.6%; in that of `O=C(Nc1ccc(-c2nc3ccccc3s2)c(O)c1)c1ccc(-c2ccccc2)cc1` [CBK263979], 92.9%; in that of `Cc1ccc(N(CC(=O)Nc2ccc(S(=O)(=O)N3CCCCC3)cc2)S(C)(=O)=O)c(C)c1` [CBK263981], 99.8%.
As for `O=C(COc1ccccc1[N+](=O)[O-])Nc1cc(C(=O)O)cc(C(=O)O)c1` [CBK263983], the viability at 28.5 h, 10 µM came out at 93.9%.
On the same count and under the same terms, the result for `CCOC(=O)c1ccccc1NC(=O)CC1Nc2ccccc2NC1=O` (centres unmarked) [CBK263990] reads 91.3%; that for `Cc1ccc(S(=O)(=O)NCCSc2ccccc2)cc1[N+](=O)[O-]` [CBK263991], 93.6%.
`O=C(Nc1ccc(S(=O)(=O)N2CCCCC2)cc1)c1ccc(CN2CCc3ccccc3C2)cc1` [CBK263993]: the viability at 28.5 h, 10 µM was 90.7%.
Same read-out and setting: the result for `Cc1ccc(S(=O)(=O)N(CC(=O)NC2CC3CCC2C3)c2cc(Cl)cc(Cl)c2)cc1` (centres unmarked) [CBK263995] reads 85.3%; that for `OC(CN1CCOCC1)Cn1c(-c2ccccc2)c(-c2ccccc2)c2ccc3ccccc3c21` (centres unmarked) [CBK263996G], 94.7%.
The same measure, in the same setting: in the case of `Cc1ccc(CNC(=O)CN(c2cccc(C(F)(F)F)c2)S(=O)(=O)c2ccc(C)cc2)cc1` [CBK263997] it was 89.3%; in that of `COc1ccccc1/C=C(/NC(=O)c1ccc(Cl)cc1Cl)C(=O)O` [CBK263998], 98.4%.
With `O=C(CN(c1ccccc1F)S(=O)(=O)c1ccccc1)Nc1ccccc1C(=O)O` [CBK263999], the viability at 28.5 h, 10 µM came out at 97.1%.
On the same count and under the same terms, in the case of `COc1ccc(Cl)cc1NC(=O)C1CN(S(=O)(=O)c2ccccc2)CCN1S(=O)(=O)c1ccccc1` (centres unmarked) [CBK264000] it was 93.3%; in that of `O=S(=O)(NCCSc1ccccn1)c1ccc(Br)cc1` [CBK264001], 99.3%.
For `COc1ccc(Br)cc1S(=O)(=O)n1ccnc1C` [CBK264003], the viability at 28.5 h, 10 µM stood at 87.1%.
On the same count and under the same terms, in the case of `Cc1cc(C)c2oc(-c3cccc(NC(=O)c4cccc(Cl)c4Cl)c3C)nc2c1` [CBK264005] it was 84.2%; in that of `Cc1ccccc1CSCC(=O)Nc1ccc(S(=O)(=O)N2CCCCC2)cc1` [CBK264006], 103%.
The same measure, in the same setting: in the case of `O=S(=O)(NCc1cccnc1)c1ccc(Cl)c2ccccc12` [CBK264008] it was 89.5%.
Still for that read-out and setting: the result for `Cc1ccccc1CNC(=O)c1ccc(C)c([N+](=O)[O-])c1` [CBK264010] reads 110%; that for `O=C(CN(c1ccc(Cl)cc1)S(=O)(=O)c1ccccc1)Nc1ccc(F)cc1` [CBK264013], 90.5%.
As to `OC(CNCCc1ccccc1)CN1c2ccccc2Sc2ccccc21` (centres unmarked) [CBK264017G], the viability at 28.5 h, 10 µM turned out to be 97.6%.
With `COc1ccc(I)cc1S(=O)(=O)NCc1ccccn1` [CBK264019], the viability at 28.5 h, 10 µM is 91.3%.
The same measure, in the same setting: the result for `Cc1ccc(S(=O)(=O)N(CC(=O)Nc2ccc(Cl)cc2C)c2cccc(Cl)c2C)cc1` [CBK264021] reads 85.7%; that for `Cc1ccc(-c2nc3cc(Cl)ccc3o2)cc1NC(=S)NC(=O)c1cccc(Cl)c1` [CBK264022], 108%.
Take `COc1ccc(C(NC(=O)c2cccc(OC)c2)c2cc(Cl)c3cccnc3c2O)cc1` (centres unmarked) [CBK264027]: the viability at 28.5 h, 10 µM amounted to 90.7%.
For `O=C(CSCc1ccc([N+](=O)[O-])cc1)Nc1ccc2c(c1)OCO2` [CBK264031], the viability at 28.5 h, 10 µM was 95.7%.
On the same count and under the same terms, in the case of `O=S(=O)(NCc1cccnc1)c1ccc(Cl)c(Cl)c1Cl` [CBK264032] it was 91.1%; in that of `O=C(Nc1ccc2oc(-c3cccnc3)nc2c1)c1ccc(-c2ccccc2)cc1` [CBK264035], 88.3%.
Take `COc1cc(C(=O)Nc2ccc3oc(-c4cccnc4)nc3c2)ccc1OCc1ccc(Cl)cc1` [CBK264037]: the viability at 28.5 h, 10 µM was found to be 87.9%.
The same measure, in the same setting: in the case of `Cc1ccc(N(CC(=O)Nc2ccc(Br)c(C)c2)S(=O)(=O)c2ccc(C)cc2)cc1` [CBK264038] it was 94.6%; in that of `Cc1ccccc1CNC(=O)CCSc1ccc(Cl)cc1` [CBK264040], 102%.
With `CC(Oc1ccc(/C=C/[N+](=O)[O-])cc1)C(=O)O` (centres unmarked) [CBK264042], the viability at 28.5 h, 10 µM came out at 99.9%.
With `CCCc1nc2oc3c(-c4ccccc4)c(C(=O)O)c(C)nc3c2c2c1COC(C)(C)C2` [CBK264044], the viability at 28.5 h, 10 µM came out at 89.2%.
The same measure, in the same setting: in the case of `CCOC(=O)c1c(NC(=S)NC(=O)c2cccc(Cl)c2)sc2c1CCCC2` [CBK264045] it was 88.2%; in that of `Cc1ccccc1CNC(=O)CN(c1cccc(C(F)(F)F)c1)S(=O)(=O)c1ccccc1` [CBK264047], 102%; in that of `Cc1ccc(C(=O)NC(=S)Nc2cccc(NC(=O)c3ccccc3C)c2)cc1` [CBK264049], 95.1%.
On the same count and under the same terms, in the case of `COc1ccc(N(CC(=O)N2CCN(C)CC2)S(=O)(=O)c2ccc(C)c([N+](=O)[O-])c2)cc1` [CBK264051] it was 89.8%.
In the case of `CN1CCc2c(C#N)c(N)n(N)c(=S)c2C1` [CBK264055], the viability at 28.5 h, 10 µM amounted to 101%.
For `Cc1ccc(S(=O)(=O)NCCSCc2ccc(Cl)cc2)cc1[N+](=O)[O-]` [CBK264056], the viability at 28.5 h, 10 µM was 104%.
As for `Cn1nc(CC(=O)Nc2ccc(OC(=O)c3ccccc3)cc2)c2ccccc2c1=O` [CBK264057], the viability at 28.5 h, 10 µM amounted to 96%.
Still for that read-out and setting: in the case of `O=C(NC(Cc1ccccc1)C(=O)N1CCCC1C(=O)O)c1ccccc1` (stereo not drawn) [CBK264058] (Bz-Phe-Pro-OH; configuration not given here) it was 90.8%; in that of `CC(Oc1ccccc1)C(=O)Nc1ccccc1-c1ccccc1` (centres unmarked) [CBK264059], 111%.
Still for that read-out and setting: the result for `CC(Oc1ccccc1)C(=O)NCCCc1ccccc1` (centres unmarked) [CBK264060] reads 93.4%; that for `O=C(COc1cccc(Br)c1)Nc1nnc[nH]1` [CBK264063], 94.1%.
As to `CC(C)(O)C#Cc1ccc(C(=O)N2CCC(C(N)=O)(N3CCCCC3)CC2)cc1` [CBK264065], the viability at 28.5 h, 10 µM is 97.3%.
Still for that read-out and setting: the result for `Cc1cc(C)c(C)c(C(=O)COC(=O)c2cc(O)nc3ccccc23)c1C` [CBK264066] reads 94.8%; that for `Cc1sc2nc(SCC(=O)c3c[nH]c4ccccc34)nc(O)c2c1C` [CBK264068], 80.9%; that for `COc1ccc(C(=O)COC(=O)c2cc(-c3ccc(Cl)cc3)nc3ccc(C)cc23)cc1[N+](=O)[O-]` [CBK264072], 90.6%.
In the case of `O=S(=O)(NC1c2cccc3cccc(c23)C1Sc1ccccn1)c1ccc(Cl)cc1` (centres unmarked) [CBK264073], the viability at 28.5 h, 10 µM is 95.1%.
In the case of `CC(=O)OC(C(=O)O)C(OC(C)=O)c1nc2ccccc2s1` (centres unmarked) [CBK264076], the viability at 28.5 h, 10 µM is 99.3%.
Regarding `O=C(O)CNC(=O)CN1C(=O)c2ccccc2C1=O` [CBK264077], the viability at 28.5 h, 10 µM was found to be 98.6%.

Staying with this data set, now noted: human, hela cells, % viability, bulk resorufin, single well.
For `Cc1ccc(OCCn2cc(/C=C3/C(=O)NC(=O)N(Cc4ccco4)C3=O)c3ccccc32)cc1` [CBK263936], the viability at 28.5 h, 10 µM stood at 92.9%.
Still for that read-out and setting: in the case of `O=C1NC(=O)N(Cc2ccco2)C(=O)/C1=C\c1ccc(-c2ccc(Cl)c(C(=O)O)c2)o1` [CBK263937] it was 97.9%; in that of `O=C1NC(=O)N(Cc2ccco2)C(=O)/C1=C\c1cn(Cc2ccccc2)c2ccccc12` [CBK263939], 88.5%; in that of `Cc1cc(/C=C2\C(=O)NC(=S)N(c3ccccc3)C2=O)c(C)n1-c1cc(C(=O)O)cc(C(=O)O)c1` [CBK263975], 105%.
On the same count and under the same terms, the result for `COc1ccc(N2C(=O)/C(=C/c3ccc(OCC(=O)O)c(Cl)c3)C(=O)NC2=S)cc1` [CBK264018] reads 93.7%; that for `Cc1cc(/C=C2\C(=O)NC(=O)N(c3ccccc3F)C2=O)c(C)n1-c1cc(C(=O)O)cc(C(=O)O)c1` [CBK264028], 89.9%; that for `Cc1cc(/C=C2\C(=O)NC(=O)N(c3cccc(F)c3)C2=O)c(C)n1-c1cc(C(=O)O)cc(C(=O)O)c1` [CBK264041], 97.3%.

One may read the viability as a read-out of living cells in per cent, often relative to untreated cells.
